This is an account of results in patent publication US20200281908A1, “MEANS FOR TREATING DEMENTIA OF VARIOUS ETIOLOGY” (priority 2016, published 2020).

The subject of assay [1] is streptozotocin-induced rat model of AD. Description: CPAR test on a streptozotocin-induced rat model of AD. In kind it is in vivo. Particulars: for Latent period of going into the dark chamber, Recalling, 24 hours later / Latent period of going into the dark chamber, Recalling, 7 days later / Latent period of going into the dark chamber, Recalling, 14 days later / Latent period of going into the dark chamber, Training LP1 / Number of animals with amnesia that went into the dark chamber during the CPAR recalling test/Number of animals in the group, 24 hours later / Number of animals with amnesia that went into the dark chamber during the CPAR recalling test/Number of animals in the group, 7 days later / Number of animals with amnesia that went into the dark chamber during the CPAR recalling test/Number of animals in the group, 14 days later / percentage of rats with reflex impairment (went into the dark chamber), 24 hours later / percentage of rats with reflex impairment (went into the dark chamber), 7 days later / percentage of rats with reflex impairment (went into the dark chamber), 14 days later: rats, n = 12; for Latent period of going into the dark chamber, Recalling, 24 hours later / Latent period of going into the dark chamber, Recalling, 7 days later / Latent period of going into the dark chamber, Recalling, 14 days later / Latent period of going into the dark chamber, Training LP1: M ± m. As to the method:
Example 2. The aim of the study is to assess the specific pharmacological activity of the liposomal formulation of methyl 4-[2-oxo-1,2-bis[[2-(4-pyridinyl)ethyl]amino]ethyl]benzoate succinate in comparison with the pharmaceutical substance of this compound and memantine on memory loss when modelling AD using neurotoxin streptozotocin in rats.
In this study, the modelling of AD was performed using the procedure recommended in the Methodological Recommendations for the preclinical study of nootropic drugs.
According to the procedure, AD modeling was performed by introducing streptozotocin toxin into the cerebral ventricles of the rat.
The surgical neurotoxin injection into the brain was performed in anaesthetized animals (with chloral hydrate at a dose of 200 mg/kg, ip) in a stereotaxic apparatus.
First, the cranial trepanation was performed in animals according to the stereotaxic coordinates; AP (1.0), L (1.5-2). Streptozotocin at a dose of 3 mg/kg was injected bilaterally into the lateral ventricles of the brain according to the stereotaxic coordinates: AP (1.0): L (1.5-2): H (3.0). The toxin was injected at a rate of 0.1 μl per minute; the injected solution volume was 5 μl in each ventricle
The cranial trepanation of the control (sham-operated) animals was performed according to the stereotaxic coordinates: AP (1.0): L (1.5-2), and distilled water was then injected bilaterally into the lateral ventricles of the brain also according to the stereotaxic coordinates, in the same volume and at the same rate as the studied drugs.
1 hour after surgery, the intragastric administration of substances to rats started, which continued for 14 days.
The test pharmaceutical substance (Prototype) and the current liposomal formulation of this compound were administered to rats in 2 doses of 0.25 mg/kg and 1 mg/kg. Memantine at a dose of 1 mg/kg. Distilled water was administered to control animals.
The day after the last injection of substances, procedures that allow testing the training and memory of animals started.
Evaluation of the antiamnesic effect of PAM-12 in comparison with memantine was performed using the CPAR method. A detailed description of the CPAR method is given in Example 1. […] Memory loss was determined in the terms of the reduction of the latent time of the CPAR and increase in the number of animals that went into the dark chamber during reflex recalling test, compared to that of the control
The animals were randomly divided into 8 arms.
1. Intact control—distilled water, intragastrically (i.g.), 14 days-12 rats.
2. Control—sham-operated animals—distilled water, i.g. 14 days-12 rats.
3. Active control—injection of streptozotocin (STZ) 3 mg/kg into the cerebral ventricles+distilled water, i.g., 14 days-12 rats
4. Prototype 0.25 mg/kg, i.g., 14 days: the first injection 1 hour after the injection of STZ into the cerebral ventricles and then daily for 14 days-12 rats.
5. Prototype 1.0 mg/kg, i.g., 14 days: the first injection 1 hour after the injection of STZ into the cerebral ventricles and then daily for 14 days-12 rats.
6. Current liposomal formulation 0.25 mg/kg, i.g., 14 days: the first injection 1 hour after the injection of STZ into the cerebral ventricles and then daily for 14 days-12 rats
7. Current liposomal formulation 1.0 mg/kg, i.g., 14 days: the first injection 1 hour after the injection of STZ into the cerebral ventricles and then daily for 14 days-12 rats.
8. Memantine 1 mg/kg. i.g., 14 days: the first injection 1 hour after the injection of STZ into the cerebral ventricles and then daily for 14 days-12 rats.

Assay [2] concerns CPAR amnesia caused by MES in rats. The experiment in a line: CPAR (conditioned passive avoidance reflex) amnesia caused by maximal electroshock seizure (MES). In kind it is in vivo, rat. Particulars: n = 10; for CPAR recalling test 24 hours later: Latent time of the reflex / CPAR training Latent time of the reflex: M ± m. The source says:
Example 1. The aim of the study is to assess the effect of the liposomal formulation of methyl 4-[2-oxo-1,2-bis[[2-(4-pyridinyl)ethyl]amino]ethyl]benzoate succinate on conditioned passive avoidance reflex (CPAR) amnesia caused by maximal electroshock seizure (MES) in comparison with the pharmaceutical substance of this compound and piracetam in rats.
CPAR is a basic method for studying the effects of drugs affecting memory in any manner whatsoever. When exposed to CPAR, it is possible to identify both memory improvement and its deterioration (amnesic effect). CPAR is based on the inborn hole exploratory behaviour of rodents—the tendency to hide in a limited darkened space.
The apparatus for studying the action of drugs is a dark chamber with an electrode floor. The dark chamber is connected through a square guillotine door with a hinged platform. The hinged platform is illuminated by a 60 watt lamp. The dark chamber is located oil the laboratory table, and the platform hangs above the floor at a height of 800 mm.
First, CPAR was developed in rats. Rats were placed on a lighted platform in from of the dark chamber of the apparatus with their tail toward the inlet and recorded latent time of the reflex. Then, in the dark chamber, the rat received a single 10-second pain stimulation with an electric current (0.3 mA) through the electrode floor (training)
Amnesia was invoked by MES Electric stimulus (250 V, 115-120 mA, 50 Hz, for 0.1 sec) for obtaining MES was applied to the rat through special cornal (ocular) electrodes, previously soaked in saline MES was performed directly after CPAR training.
Experimental groups. The animals were divided into 7 arms: • Arm I: control without amnesia (saline). • Arm II: control with amnesia (MES) • Arm III: Prototype 0.25 mg/kg+MES. • Arm IV: Prototype 1.0 mg/kg+MES. • Arm V: Current liposomal formulation 0.25 mg/kg+MES. • Arm VI: Current liposomal formulation 1.0 mg/kg+MES. • Arm VII: Piracetam 400 mg/kg+MES.
The prototype and the current liposomal composition were administered intragastrically. Piracetam was administered once intraperitoneally 40 minutes before the experiment

Where [3] appears, read: 1.0 mg/kg i.g. + STZ (memantine printed p.o.).
[4] abbreviates: 400 mg/kg once intraperitoneally + MES.
The mark [5] stands for this setting: 0.25 mg/kg once intragastrically + MES.
Where [6] appears, read: 1 mg/kg once intragastrically + MES.

Turning to `CC12CC3CC(C)(C1)CC(N)(C3)C2` [Memantine], the “antiamnesic effect in rats of the streptozotocin-induced AD model” value in assay [1] (1 mg/kg) is listed as “pronounced antiamnesic effect”. In addition, in assay [1] (1.0 mg/kg i.g. 14 days + STZ), the “Latent period of going into the dark chamber, Recalling, 24 hours later” value (shortened to “Latent period … 24 hours later”) came out at 166.4 ± 13.6 s; the “Latent period of going into the dark chamber, Recalling, 7 days later” value (from here on “Latent period … 7 days later”) turned out to be 166.4 ± 13.6 s; the “Latent period of going into the dark chamber, Recalling, 14 days later” value (shortened to “Latent period … 14 days later”) amounted to 143.5 ± 19.2 s; the “Latent period of going into the dark chamber, Training LP1” value (“Latent period … Training LP1” for short) turned out to be 20.4 ± 3.4 s. Besides, in assay [1] (setting [3]), the “Number of animals with amnesia that went into the dark chamber during the CPAR recalling test/Number of animals in the group, 24 hours later” value was 1/12; the “Number of animals with amnesia that went into the dark chamber during the CPAR recalling test/Number of animals in the group, 7 days later” value is 1/12; the “Number of animals with amnesia that went into the dark chamber during the CPAR recalling test/Number of animals in the group, 14 days later” value is given as 3/12; the “percentage of rats with reflex impairment (went into the dark chamber), 24 hours later” value (“percentage of rats … 24 hours later” for short) was 8.3%. In assay [1] (setting [3]), the “percentage of rats with reflex impairment (went into the dark chamber), 7 days later” value (from here on “percentage of rats … 7 days later”) was 8.3% and the “percentage of rats with reflex impairment (went into the dark chamber), 14 days later” value (“percentage of rats … 14 days later” below) came out at 25%. Moreover, the “number of rats who forgot about the pain stimulation, times less compared to Active Control group” value (“number … compared to Active Control group” below) in assay [1] (1 mg/kg, 24 hours after the CPAR training) is listed as 5 times. Besides, the “number … compared to Active Control group” value in assay [1] (1 mg/kg, 7 days after the CPAR training) is reported as 7 times. In assay [1] (1 mg/kg, 7 days later), the “latent period longer than in the Active control group” value turned out to be 1.5 times. Further, in assay [1] (1 mg/kg, 14 days after the CPAR training), the “number … compared to Active Control group” value amounted to 2.7 times. The “latent period longer than in the Active control group” value in assay [1] (1 mg/kg, 14 days later) came to 1.9 times.
Consider `NC(=O)CN1CCCC1=O` [Piracetam], for which, in assay [2] (setting [4]), the “CPAR recalling test 24 hours later: Latent time of the reflex” value is 97.17 ± 21.43 s; the “CPAR training Latent time of the reflex” value worked out at 19.11 ± 5.28 s; the “CPAR recalling test 24 hours later: Number of animals that did not go into the dark chamber, %” value is 50%.
`COC(=O)c1ccc(C(NCCc2ccncc2)C(=O)NCCc2ccncc2)cc1.O=C(O)CCC(=O)O` (stereo not shown) [Prototype, methyl 4-[2-oxo-1,2-bis[[2-(4-pyridinyl)ethyl]amino]ethyl]benzoate succinate]: in assay [2] (setting [5]), the “CPAR recalling test 24 hours later: Latent time of the reflex” value amounted to 107.86 ± 15.12 s and the “CPAR training Latent time of the reflex” value is 20.38 ± 4.38 s. Moreover, in assay [2] (setting [6]), the “CPAR recalling test 24 hours later: Latent time of the reflex” value is 118.13 ± 17.26 s and the “CPAR training Latent time of the reflex” value came to 13.29 ± 2.78 s. In assay [1] (0.25 mg/kg i.g. 14 days + STZ), the “Latent period … 24 hours later” value came out at 133.1 ± 13.3 s; the “Latent period … 7 days later” value was determined as 121.3 ± 17.8 s; the “Latent period … 14 days later” value is 102.8 ± 19.4 s; the “Latent period … Training LP1” value is 24.3 ± 5.1 s. Further, in assay [1] (0.25 mg/kg i.g. + STZ), the “Number of animals with amnesia that went into the dark chamber during the CPAR recalling test/Number of animals in the group, 24 hours later” value is 4/12; the “Number of animals with amnesia that went into the dark chamber during the CPAR recalling test/Number of animals in the group, 7 days later” value is on record as 5/12; the “Number of animals with amnesia that went into the dark chamber during the CPAR recalling test/Number of animals in the group, 14 days later” value is listed as 6/12; the “percentage of rats … 24 hours later” value was found to be 33.3%. Also, in assay [1] (0.25 mg/kg i.g. + STZ), the “percentage of rats … 7 days later” value is 41.7% and the “percentage of rats … 14 days later” value is 50%. Also, in assay [1] (1.0 mg/kg i.g. 14 days + STZ), the “Latent period … 24 hours later” value worked out at 147.7 ± 16.2 s; the “Latent period … 7 days later” value turned out to be 132.3 ± 2.8 s; the “Latent period … 14 days later” value worked out at 124.9 ± 20.3 s; the “Latent period … Training LP1” value was determined as 30.1 ± 12.1 s. In assay [1] (setting [3]), the “Number of animals with amnesia that went into the dark chamber during the CPAR recalling test/Number of animals in the group, 24 hours later” value is 3/12; the “Number of animals with amnesia that went into the dark chamber during the CPAR recalling test/Number of animals in the group, 7 days later” value was 4/12; the “Number of animals with amnesia that went into the dark chamber during the CPAR recalling test/Number of animals in the group, 14 days later” value is 5/12; the “percentage of rats … 24 hours later” value was 25%. Besides, in assay [1] (setting [3]), the “percentage of rats … 7 days later” value was determined as 33.3% and the “percentage of rats … 14 days later” value was determined as 41.7%.
